Consider nine molecules from ChEMBL document CHEMBL5465560, “Selectivity Literature for EUbOPEN Chemogenomic Library” (2024).

Assay [1] concerns the target T1, Tyrosine-protein kinase TXK (Homo sapiens) (UniProt P42681).
T1 sequence (whole entry): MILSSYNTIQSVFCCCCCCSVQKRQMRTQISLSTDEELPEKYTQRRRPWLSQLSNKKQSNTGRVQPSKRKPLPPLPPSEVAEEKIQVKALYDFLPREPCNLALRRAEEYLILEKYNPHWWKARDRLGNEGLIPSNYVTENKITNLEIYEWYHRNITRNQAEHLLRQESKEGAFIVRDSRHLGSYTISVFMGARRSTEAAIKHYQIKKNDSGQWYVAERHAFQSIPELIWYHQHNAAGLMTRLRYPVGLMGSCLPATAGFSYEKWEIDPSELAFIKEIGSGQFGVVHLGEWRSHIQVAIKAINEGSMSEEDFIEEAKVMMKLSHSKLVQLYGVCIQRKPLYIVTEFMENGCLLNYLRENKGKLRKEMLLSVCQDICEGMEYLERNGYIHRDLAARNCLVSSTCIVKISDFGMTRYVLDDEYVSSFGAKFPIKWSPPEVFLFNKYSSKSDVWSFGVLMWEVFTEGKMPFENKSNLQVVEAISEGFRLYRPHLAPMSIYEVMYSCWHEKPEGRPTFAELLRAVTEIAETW
The assay can be described thus: Selectivity interaction (KinomeScan (DiscoverX)) EUB0000595a TXK. Conditions: at 10 µM.

In assay [2] the target is Serine/threonine-protein kinase SIK1 (Homo sapiens) (UniProt P57059). The assay can be described thus: Selectivity interaction (KinomeScan (DiscoverX)) EUB0000666a SIK1. The following applies: at 10 µM.
Sequence of Serine/threonine-protein kinase SIK1 (Homo sapiens) (P57059 whole entry): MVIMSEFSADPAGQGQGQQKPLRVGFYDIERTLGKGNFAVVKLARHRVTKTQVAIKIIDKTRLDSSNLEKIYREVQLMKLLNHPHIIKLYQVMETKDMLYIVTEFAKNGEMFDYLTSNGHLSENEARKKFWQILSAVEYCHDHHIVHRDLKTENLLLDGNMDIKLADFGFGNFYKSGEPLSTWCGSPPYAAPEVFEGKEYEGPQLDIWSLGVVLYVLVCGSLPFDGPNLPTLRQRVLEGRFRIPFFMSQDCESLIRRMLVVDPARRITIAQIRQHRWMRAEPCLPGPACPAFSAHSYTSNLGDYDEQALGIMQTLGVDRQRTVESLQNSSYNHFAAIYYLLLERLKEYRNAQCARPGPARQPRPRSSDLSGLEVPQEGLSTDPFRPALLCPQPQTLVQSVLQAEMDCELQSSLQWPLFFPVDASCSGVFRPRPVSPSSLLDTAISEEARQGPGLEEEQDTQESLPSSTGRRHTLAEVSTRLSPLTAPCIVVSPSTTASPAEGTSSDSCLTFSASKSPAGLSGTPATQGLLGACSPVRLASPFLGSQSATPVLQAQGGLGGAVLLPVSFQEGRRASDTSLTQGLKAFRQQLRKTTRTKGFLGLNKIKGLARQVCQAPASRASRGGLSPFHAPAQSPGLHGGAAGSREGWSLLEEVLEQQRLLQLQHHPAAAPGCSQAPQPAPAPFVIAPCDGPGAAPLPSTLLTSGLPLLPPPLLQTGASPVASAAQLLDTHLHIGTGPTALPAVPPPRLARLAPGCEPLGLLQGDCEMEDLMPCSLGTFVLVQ
The target in assay [3] is Mitogen-activated protein kinase 10 (Homo sapiens, UniProt P53779). The assay can be described thus: Selectivity interaction (KinomeScan (DiscoverX)) EUB0000607a MAPK10. The following applies: at 10 µM.
Sequence of Mitogen-activated protein kinase 10 (P53779 whole entry): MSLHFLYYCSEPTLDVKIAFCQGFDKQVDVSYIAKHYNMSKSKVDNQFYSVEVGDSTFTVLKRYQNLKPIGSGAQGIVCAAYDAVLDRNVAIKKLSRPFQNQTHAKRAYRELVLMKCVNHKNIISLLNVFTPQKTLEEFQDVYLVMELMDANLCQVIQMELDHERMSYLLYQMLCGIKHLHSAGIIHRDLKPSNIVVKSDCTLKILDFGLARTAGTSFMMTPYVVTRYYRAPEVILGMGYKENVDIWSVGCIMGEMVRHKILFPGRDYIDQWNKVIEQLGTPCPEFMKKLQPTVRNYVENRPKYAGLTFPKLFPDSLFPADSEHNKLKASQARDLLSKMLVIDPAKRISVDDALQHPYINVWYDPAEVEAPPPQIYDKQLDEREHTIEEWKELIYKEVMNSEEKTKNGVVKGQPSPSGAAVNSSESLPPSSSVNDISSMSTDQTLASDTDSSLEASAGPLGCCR
For assay [4], the target named is Dual specificity mitogen-activated protein kinase kinase 1 (Homo sapiens, UniProt Q02750). The assay can be described thus: Selectivity interaction (ActivX KiNativ screen (kinase selectivity in THP-1 cell lysates)) EUB0000639a MAP2K1. Type of assay: subcellular. Conditions: lysate, at 0.2 µM.
Sequence of Dual specificity mitogen-activated protein kinase kinase 1 (Q02750 whole entry): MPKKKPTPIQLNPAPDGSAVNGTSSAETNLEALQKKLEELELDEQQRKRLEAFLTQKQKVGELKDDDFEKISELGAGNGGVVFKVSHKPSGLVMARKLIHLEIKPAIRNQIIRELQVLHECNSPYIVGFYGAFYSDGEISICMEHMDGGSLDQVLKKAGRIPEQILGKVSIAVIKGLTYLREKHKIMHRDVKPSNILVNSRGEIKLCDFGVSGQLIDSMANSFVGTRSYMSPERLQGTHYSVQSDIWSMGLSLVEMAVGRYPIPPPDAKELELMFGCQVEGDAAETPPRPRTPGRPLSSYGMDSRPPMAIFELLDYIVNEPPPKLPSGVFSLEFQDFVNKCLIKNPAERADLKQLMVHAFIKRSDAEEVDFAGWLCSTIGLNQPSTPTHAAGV
Assay [5] has as its target T2, Ribosomal protein S6 kinase alpha-3 (Homo sapiens, UniProt P51812). The experiment in a line: Selectivity interaction (ActivX KiNativ screen (kinase selectivity in THP-1 cell lysates)) EUB0000639a RPS6KA3. Type of assay: subcellular. The following applies: lysate, at 1 µM.
Assay [6] concerns the target T2, Ribosomal protein S6 kinase alpha-3. The experiment in a line: Selectivity interaction (Kinase panel (literature)) EUB0001199aCl RPS6KA3. Conditions: at 1 µM.
Assay [7] addresses T3, Ephrin type-A receptor 1 (Homo sapiens) (UniProt P21709).
T3 sequence (whole entry): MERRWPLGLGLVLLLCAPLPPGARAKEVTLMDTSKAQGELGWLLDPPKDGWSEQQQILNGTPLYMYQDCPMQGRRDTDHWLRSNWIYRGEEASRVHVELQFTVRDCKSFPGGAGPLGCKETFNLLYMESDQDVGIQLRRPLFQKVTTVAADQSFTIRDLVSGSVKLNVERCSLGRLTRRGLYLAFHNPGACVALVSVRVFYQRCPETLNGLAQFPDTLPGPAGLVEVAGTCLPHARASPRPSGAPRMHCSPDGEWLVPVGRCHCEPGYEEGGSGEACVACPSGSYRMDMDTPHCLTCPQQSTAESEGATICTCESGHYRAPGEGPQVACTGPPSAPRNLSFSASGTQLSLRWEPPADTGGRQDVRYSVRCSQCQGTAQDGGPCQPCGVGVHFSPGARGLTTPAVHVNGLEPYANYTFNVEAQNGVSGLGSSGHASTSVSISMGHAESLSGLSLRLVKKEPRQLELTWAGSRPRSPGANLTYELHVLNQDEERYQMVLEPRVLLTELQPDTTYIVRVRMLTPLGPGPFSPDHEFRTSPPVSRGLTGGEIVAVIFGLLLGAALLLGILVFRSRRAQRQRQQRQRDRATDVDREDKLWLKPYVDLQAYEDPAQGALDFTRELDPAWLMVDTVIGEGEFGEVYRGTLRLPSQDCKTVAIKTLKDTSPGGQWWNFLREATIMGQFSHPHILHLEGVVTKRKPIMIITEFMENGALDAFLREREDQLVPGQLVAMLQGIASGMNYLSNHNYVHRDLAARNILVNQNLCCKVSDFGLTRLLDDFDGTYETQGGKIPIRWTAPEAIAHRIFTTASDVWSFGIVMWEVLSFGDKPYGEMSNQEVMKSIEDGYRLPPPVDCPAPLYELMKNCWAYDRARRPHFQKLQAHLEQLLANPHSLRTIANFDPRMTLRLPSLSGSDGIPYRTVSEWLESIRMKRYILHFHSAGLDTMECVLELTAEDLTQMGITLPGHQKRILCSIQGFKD
The assay can be described thus: Selectivity interaction (KinomeScan (DiscoverX)) EUB0001049a EPHA1. Conditions: at 1 µM.

Assay [8] addresses Phosphorylase b kinase gamma catalytic chain, skeletal muscle/heart isoform (Homo sapiens) (UniProt Q16816). The assay can be described thus: Selectivity interaction (KinomeScan (DiscoverX)) EUB0001049a PHKG1. Conditions: at 1 µM.
For assay [9], the target named is Receptor-interacting serine/threonine-protein kinase 2 (Homo sapiens, UniProt O43353). The experiment in a line: Selectivity interaction (KinomeScan (DiscoverX)) EUB0000618a RIPK2. Conditions: at 10 µM.
Sequence of Receptor-interacting serine/threonine-protein kinase 2 (O43353 whole entry): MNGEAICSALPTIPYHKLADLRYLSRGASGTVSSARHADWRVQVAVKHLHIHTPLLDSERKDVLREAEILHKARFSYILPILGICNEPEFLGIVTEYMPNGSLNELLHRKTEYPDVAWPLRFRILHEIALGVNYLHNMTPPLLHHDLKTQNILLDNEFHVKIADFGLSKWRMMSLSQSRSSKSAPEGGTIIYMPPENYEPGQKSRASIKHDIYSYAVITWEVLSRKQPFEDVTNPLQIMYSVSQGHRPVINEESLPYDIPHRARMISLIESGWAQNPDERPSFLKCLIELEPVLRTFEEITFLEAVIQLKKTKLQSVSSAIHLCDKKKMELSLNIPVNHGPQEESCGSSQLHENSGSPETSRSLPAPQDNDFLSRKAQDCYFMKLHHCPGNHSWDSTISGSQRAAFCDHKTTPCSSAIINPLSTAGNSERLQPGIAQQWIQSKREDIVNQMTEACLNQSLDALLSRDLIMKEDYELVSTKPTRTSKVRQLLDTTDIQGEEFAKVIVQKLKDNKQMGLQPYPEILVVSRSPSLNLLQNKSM
The target in assay [10] is MAP kinase-interacting serine/threonine-protein kinase 1 (Homo sapiens) (UniProt Q9BUB5). The experiment in a line: Selectivity interaction (KinomeScan (DiscoverX)) EUB0000092b MKNK1. The following applies: at 10 µM.
Sequence of MAP kinase-interacting serine/threonine-protein kinase 1 (Homo sapiens) (Q9BUB5 whole entry, looked up): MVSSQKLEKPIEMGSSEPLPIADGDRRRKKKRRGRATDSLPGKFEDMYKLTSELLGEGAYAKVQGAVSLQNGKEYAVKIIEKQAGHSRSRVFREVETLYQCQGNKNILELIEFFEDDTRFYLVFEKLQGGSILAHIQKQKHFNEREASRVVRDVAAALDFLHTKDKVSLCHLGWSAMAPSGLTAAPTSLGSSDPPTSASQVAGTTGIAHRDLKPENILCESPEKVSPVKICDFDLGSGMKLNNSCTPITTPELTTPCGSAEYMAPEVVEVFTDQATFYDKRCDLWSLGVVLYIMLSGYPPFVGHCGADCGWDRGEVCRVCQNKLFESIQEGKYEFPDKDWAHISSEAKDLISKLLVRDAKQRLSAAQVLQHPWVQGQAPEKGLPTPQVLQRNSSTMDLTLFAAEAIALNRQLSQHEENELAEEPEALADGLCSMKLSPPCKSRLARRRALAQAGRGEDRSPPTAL
The target in assay [11] is T4, Serine/threonine-protein kinase Nek11 (Homo sapiens) (UniProt Q8NG66).
T4 sequence (whole entry): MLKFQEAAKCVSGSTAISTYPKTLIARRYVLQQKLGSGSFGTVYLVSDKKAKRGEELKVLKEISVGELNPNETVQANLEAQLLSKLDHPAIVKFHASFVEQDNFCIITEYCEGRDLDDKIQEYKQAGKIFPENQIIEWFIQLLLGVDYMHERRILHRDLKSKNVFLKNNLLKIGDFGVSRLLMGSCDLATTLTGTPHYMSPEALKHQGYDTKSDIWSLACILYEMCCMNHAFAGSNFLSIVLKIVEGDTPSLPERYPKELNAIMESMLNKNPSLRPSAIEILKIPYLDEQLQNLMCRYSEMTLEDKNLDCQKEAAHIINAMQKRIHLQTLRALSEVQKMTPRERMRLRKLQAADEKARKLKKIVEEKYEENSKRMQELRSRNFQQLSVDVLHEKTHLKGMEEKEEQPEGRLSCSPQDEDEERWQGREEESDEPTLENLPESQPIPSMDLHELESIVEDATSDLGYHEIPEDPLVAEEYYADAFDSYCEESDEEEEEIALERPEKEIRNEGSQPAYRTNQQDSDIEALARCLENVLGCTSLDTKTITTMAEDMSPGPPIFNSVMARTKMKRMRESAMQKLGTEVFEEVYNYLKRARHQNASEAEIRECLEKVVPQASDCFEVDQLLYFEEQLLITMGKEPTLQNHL
The experiment in a line: Selectivity interaction (KinomeScan (DiscoverX)) EUB0000092b NEK11. Conditions: at 10 µM.

Assay [12] addresses Serine/threonine-protein kinase 26 (Homo sapiens, UniProt Q9P289). The assay can be described thus: Selectivity interaction (Kinase panel (KiNativ target engagement assay in Jurkat cells)) EUB0001635a STK26. The format is cell-based. Conditions: Selectivity number of off-targets 0.0, Selectivity number of targets 233.0, Source Knowledge https://www.sciencedirect.com/science/article/pii/S2451945619300674?via%3Dihub, at 1 µM.

T2 sequence (P51812 whole entry): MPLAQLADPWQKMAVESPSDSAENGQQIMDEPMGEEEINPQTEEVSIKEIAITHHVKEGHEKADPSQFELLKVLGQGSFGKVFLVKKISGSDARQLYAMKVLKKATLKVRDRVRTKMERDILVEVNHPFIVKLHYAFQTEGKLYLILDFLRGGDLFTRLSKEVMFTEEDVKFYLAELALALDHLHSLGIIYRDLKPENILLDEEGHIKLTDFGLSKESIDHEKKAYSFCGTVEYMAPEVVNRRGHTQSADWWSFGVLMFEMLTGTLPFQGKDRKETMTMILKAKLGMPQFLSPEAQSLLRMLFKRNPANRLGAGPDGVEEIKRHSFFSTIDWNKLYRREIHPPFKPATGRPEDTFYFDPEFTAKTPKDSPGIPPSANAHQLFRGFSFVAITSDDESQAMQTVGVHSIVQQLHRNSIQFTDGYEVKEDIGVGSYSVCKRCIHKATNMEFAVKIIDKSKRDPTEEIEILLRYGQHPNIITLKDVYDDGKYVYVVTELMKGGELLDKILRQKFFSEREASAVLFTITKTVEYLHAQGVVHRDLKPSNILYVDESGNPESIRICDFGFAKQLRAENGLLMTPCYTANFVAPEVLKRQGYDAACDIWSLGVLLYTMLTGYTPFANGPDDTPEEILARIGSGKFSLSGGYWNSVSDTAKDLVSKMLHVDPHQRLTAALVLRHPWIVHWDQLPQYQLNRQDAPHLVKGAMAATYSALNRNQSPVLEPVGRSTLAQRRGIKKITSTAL
Sequence of Serine/threonine-protein kinase 26 (Q9P289 2-416 limits assumed): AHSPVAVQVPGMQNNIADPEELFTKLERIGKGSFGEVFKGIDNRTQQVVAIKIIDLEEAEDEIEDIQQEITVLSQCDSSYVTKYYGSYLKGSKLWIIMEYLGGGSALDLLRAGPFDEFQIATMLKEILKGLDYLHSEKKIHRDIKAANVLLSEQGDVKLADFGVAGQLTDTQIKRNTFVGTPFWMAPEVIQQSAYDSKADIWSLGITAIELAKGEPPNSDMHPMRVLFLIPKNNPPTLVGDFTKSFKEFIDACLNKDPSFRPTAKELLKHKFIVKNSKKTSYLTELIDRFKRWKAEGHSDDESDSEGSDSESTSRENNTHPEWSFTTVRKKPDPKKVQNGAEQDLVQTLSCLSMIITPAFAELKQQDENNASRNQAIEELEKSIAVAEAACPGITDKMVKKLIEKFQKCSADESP
Sequence of Phosphorylase b kinase gamma catalytic chain, skeletal muscle/heart isoform (Homo sapiens) (Q16816 whole entry, looked up, canonical isoform): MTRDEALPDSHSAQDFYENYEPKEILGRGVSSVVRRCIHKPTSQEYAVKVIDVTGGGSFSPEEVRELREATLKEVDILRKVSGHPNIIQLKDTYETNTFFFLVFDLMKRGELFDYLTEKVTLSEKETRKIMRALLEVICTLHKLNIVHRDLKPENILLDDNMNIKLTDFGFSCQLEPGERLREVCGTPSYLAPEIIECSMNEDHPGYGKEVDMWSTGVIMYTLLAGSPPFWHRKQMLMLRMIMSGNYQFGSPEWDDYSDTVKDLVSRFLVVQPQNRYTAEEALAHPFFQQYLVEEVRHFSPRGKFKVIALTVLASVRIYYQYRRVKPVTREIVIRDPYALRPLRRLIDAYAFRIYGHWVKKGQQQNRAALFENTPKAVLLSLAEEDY

`COCC(=O)NC/C=C/c1ccc2ncnc(Nc3ccc(Oc4ccc(C)nc4)c(C)c3)c2c1` [CP-724714]: in [1], the % of control amounted to 84%.

In assay [2], `O=C(NOC[C@H](O)CO)c1ccc(F)c(F)c1Nc1ccc(I)cc1F` came in with a % of control of 100%.

The molecule `CNC(=O)Nc1ccc(-c2nc(N3CC4CCC(C3)O4)c3cnn(C4CCC5(CC4)OCCO5)c3n2)cc1` showed a % of control in [3] of 86%.

As to `CC[C@@H]1[C@H](F)C(=O)N[C@@H]1COc1nccc2cc(C(N)=O)c(OC)cc12` [ZIMLOVISERTIB], the % of inhibition in assay [4] amounted to 3.9%; in assay [5], 0.1%.

`CN1Cc2nccc(-c3cn(C)nc3-c3ccc(F)cc3)c2C1=O` yielded a % of inhibition in assay [6] of 0%.

Turning to `COc1cc(Nc2nc(C)cc(-c3cnn4nc(OC)ccc34)n2)cc(C(F)(F)F)c1`, the % of control in assay [7] worked out at 93%; in assay [8] it was 85%.

In the case of `O[C@H]1CC[C@H](Nc2ncc3nc(Nc4c(F)cc(F)cc4F)n([C@H]4CCOC4)c3n2)CC1`, in [9], the % of control stood at 37%.

As for `CCC(=O)N1CCN(c2ccc(-n3c(=O)ccc4cnc5ccc(-c6cnc7ccccc7c6)cc5c43)cc2C(F)(F)F)CC1`, the values for the % of control in [10] and in [11] were 44% and 65%, respectively.

For the molecule `C=CC(=O)Nc1ccc(C(=O)Nc2[nH]nc3c2CN(C(=O)N[C@H](CN(C)C)c2ccccc2)C3(C)C)cc1`, in assay [12], the % of engagement is -26.3%.
